Reference: ChEMBL document CHEMBL1201862, “PubChem BioAssay data set” (2004)
Where “and” joins values, the source holds several entries; their conditions need not be identical. Identical values can stand only once.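 Five compound concentrations were applied to cells in 96-well plates for 48 hours; endpoints were derived by simple linear interpolation of the resulting dose-response curve. Here, GI50 denotes the concentration required for 50% inhibition of growth.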 Calls of active or inactive are those of the source. Cut-off read from the data, not from the text of the source: active = GI50 up to about 1.1 µM and inactive = higher.

How the values were obtained:
Assay in all cases: NCI tumour cell line growth inhibition, 48 h
[1] = system: SK-OV-3
[2] = system: A498
[3] = system: HCT-116
[4] = system: MDA-MB-435
[5] = system: HL-60
[6] = system: OVCAR-8
[7] = system: OVCAR-3
[8] = system: K562
[9] = system: RXF 393
[10] = system: UO-31
[11] = system: UACC-62
[12] = system: UACC-257
[13] = system: SNB-75
[14] = system: SNB-19
[15] = system: EKVX
[16] = system: DU-145
[17] = system: SK-MEL-2
[18] = system: RPMI-8226
[19] = system: NCI-H226
[20] = system: SK-MEL-5

Measured: GI50

OCCCN(CCc1ccc(Cl)c(Cl)c1)CCN1CCCC1
inactive: [1] > 100 µM | [2] 17.3 µM | [3] 47.9 µM | [4] 22.3 µM | [5] 34.4 µM | [6] > 100 µM | [7] > 100 µM | [8] 19.5 µM | [9] 64.4 µM | [10] 50.2 µM | [11] 16.9 µM | [12] 19.3 µM | [13] 33 µM | [14] 68.4 µM | [15] > 100 µM | [16] > 100 µM | [17] 18.9 µM | [18] 26.5 µM

NNC1=Nc2ccc(Cl)cc2C(=S)N2CSCC12 (stereo not given)
inactive: [1] > 100 µM | [2] > 100 µM | [3] > 100 µM | [4] > 100 µM | [6] > 100 µM | [7] > 100 µM | [8] > 100 µM | [9] > 100 µM | [10] > 100 µM | [11] > 100 µM | [12] > 100 µM | [19] > 100 µM | [13] > 100 µM | [14] > 100 µM | [15] > 100 µM | [16] > 100 µM | [17] > 100 µM | [20] > 100 µM | [18] > 100 µM

O/N=C1/COC(C(F)(F)F)(C(F)(F)F)C1
inactive: [1] > 100 µM | [2] > 100 µM | [3] > 100 µM | [4] > 100 µM | [6] > 100 µM | [7] > 100 µM | [9] > 100 µM | [10] > 100 µM | [11] > 100 µM | [12] > 100 µM | [19] > 100 µM | [13] > 100 µM | [14] > 100 µM | [15] > 100 µM | [16] > 100 µM | [17] > 100 µM | [20] > 100 µM | [18] > 100 µM

CC1(C(=O)O)CCC2(C)CCC3(C)C(=CC(=O)C4C5(C)CCC(O)C(C)(C)C5CCC43C)C2C1 (stereo not given)
inactive: [1] 43.4 µM | [3] 23.4 µM | [4] 35.6 µM | [5] 24.6 µM | [6] 43.8 µM | [7] 19.3 µM | [9] 36.1 µM | [10] 23.6 µM | [11] 21 µM | [12] 33.9 µM | [19] 25.8 µM | [13] 33.8 µM | [14] 20.6 µM | [15] 34.9 µM | [16] 29.6 µM | [17] 21.8 µM | [20] 24.4 µM | [18] > 10 µM

COc1ccc(N2C=Nn3c(nc4sc(C)c(C)c4c3=O)C2)cc1
inactive: [1] > 100 µM | [2] 29.4 µM | [3] > 100 µM | [4] > 100 µM | [6] > 100 µM | [8] > 100 µM | [9] 53.3 µM | [10] > 100 µM | [11] > 100 µM | [12] > 100 µM | [19] > 100 µM | [13] > 100 µM | [14] > 100 µM | [15] > 100 µM | [16] > 100 µM | [17] > 100 µM | [20] > 100 µM | [18] > 100 µM

Cc1cn(C2CC(N(O)Cc3ccccc3)C(CO[Si](C)(C)C(C)(C)C)O2)c(=O)[nH]c1=O (stereo not given)
inactive: [2] 13.8 µM and 26.7 µM | [3] 16.2 µM and 19.1 µM | [4] 17.9 µM and 18 µM | [5] 29.8 µM and 36.5 µM | [6] 17.8 µM and 25.7 µM | [7] 17.7 µM | [8] 24.4 µM and 27 µM | [9] 13.6 µM | [11] 12.2 µM and 16.4 µM | [12] 16.4 µM and 26.4 µM | [19] 18.6 µM and 18.8 µM | [14] 18.6 µM and 34.9 µM | [15] 25.4 µM and 17.8 µM | [16] 17.8 µM and 25.4 µM | [17] 20.3 µM | [20] 16.6 µM and 18.8 µM | [18] 30.6 µM

CC(C)(C)C1CCC2c3c([nH]c4ccccc34)C3C(=O)N(c4ccc(C#N)cc4)C(=O)C3C2C1 (stereo not given)
inactive: [1] 24.4 µM | [2] 13.7 µM | [3] 5.43 µM | [4] 26.3 µM | [5] 3.42 µM | [6] 14.5 µM | [7] 16.4 µM | [8] 6.22 µM | [9] 3.21 µM | [10] 7.36 µM | [11] 5.81 µM | [12] 20.2 µM | [19] 20 µM | [14] 34.4 µM | [15] 13.8 µM | [16] 13.6 µM | [17] 13.1 µM | [20] 12.9 µM | [18] 21.3 µM

Cn1c(=O)c2c(ncn2CCSS(=O)(=O)O)n(C)c1=O
inactive: [1] > 100 µM | [2] > 100 µM | [3] > 100 µM | [4] > 100 µM | [6] > 100 µM | [7] > 100 µM | [8] > 100 µM | [9] 79.1 µM | [10] > 100 µM | [11] 53.2 µM | [12] > 100 µM | [19] > 100 µM | [13] 38.5 µM | [14] > 100 µM | [15] 72.6 µM | [16] > 100 µM | [17] 55.3 µM | [20] > 100 µM | [18] > 100 µM

COc1cc(NC(C)=O)ccc1C(=O)N/N=C/c1ccco1
inactive: [1] > 100 µM | [2] > 100 µM | [3] > 100 µM | [4] > 100 µM | [5] 46.5 µM | [6] > 100 µM | [7] > 100 µM | [8] > 100 µM | [9] > 100 µM | [10] 67.1 µM | [11] > 100 µM | [13] > 100 µM | [14] > 100 µM | [15] > 100 µM | [16] > 100 µM | [17] > 100 µM | [20] 44.5 µM | [18] 77.6 µM

O=C(Nc1ccccc1)N(C1=NCC(CI)S1)c1ccc(F)cc1F (stereo not given)
inactive: [1] > 100 µM | [3] 55.2 µM | [4] 50.1 µM | [5] 20.1 µM | [6] > 100 µM | [7] > 100 µM | [8] 41.5 µM | [9] 24.3 µM | [10] > 100 µM | [11] 25.6 µM | [12] 23.2 µM | [19] 87.3 µM | [13] > 100 µM | [14] > 100 µM | [15] > 100 µM | [16] > 100 µM | [17] > 100 µM | [20] 46 µM | [18] 56.2 µM

CS(=O)(=O)c1ccc(C(=O)O[C@@H]2C(=O)N3CC[C@H]4OC(O)[C@@H]2[C@H]43)cc1 (stereo not given in full)
inactive: [1] > 100 µM | [2] > 100 µM | [3] 64.7 µM | [4] > 100 µM | [6] > 100 µM | [7] > 100 µM | [8] > 100 µM | [9] > 100 µM | [10] > 100 µM | [11] > 100 µM | [12] > 100 µM | [19] > 100 µM | [13] 58.1 µM | [14] > 100 µM | [15] > 100 µM | [16] > 100 µM | [17] > 100 µM | [20] > 100 µM | [18] > 100 µM

CCCCCCCCCCCCCCN [TETRADECYLAMINE]
inactive: [1] > 100 µM | [2] > 100 µM | [3] > 100 µM | [4] > 100 µM | [5] > 100 µM | [6] > 100 µM | [7] > 100 µM | [8] > 100 µM | [9] > 100 µM | [11] > 100 µM | [12] > 100 µM | [13] > 100 µM | [15] > 100 µM | [16] > 100 µM | [17] > 100 µM | [20] > 100 µM | [18] > 100 µM

Nc1nc(-c2ccccc2)cc(-c2ccc(F)cc2)c1-c1ccc(Cl)cc1
inactive: [1] > 100 µM | [3] > 100 µM | [4] > 100 µM | [5] 21.4 µM | [6] > 100 µM | [7] > 100 µM | [8] 12.5 µM | [9] > 100 µM | [10] > 100 µM | [11] > 100 µM | [12] > 100 µM | [19] > 100 µM | [13] > 100 µM | [14] > 100 µM | [15] > 100 µM | [16] > 100 µM | [17] > 100 µM | [20] > 100 µM | [18] 44.3 µM

Nc1ccc2nc3n(c2c1)C(c1c(F)cccc1F)SC3 (stereo not given)
inactive: [1] > 100 µM | [2] > 100 µM | [3] > 100 µM | [4] > 100 µM | [5] 45.3 µM | [6] > 100 µM | [7] > 100 µM | [8] 85.5 µM | [9] > 100 µM | [10] 72.6 µM | [11] > 100 µM | [12] 89.1 µM | [13] 80.4 µM | [14] > 100 µM | [15] > 100 µM | [16] > 100 µM | [17] > 100 µM | [20] 41 µM | [18] 66.5 µM

CCOC(=O)C1=COC(C)(c2ccccc2)CC1=O (stereo not given)
inactive: [1] > 100 µM | [2] > 100 µM | [3] > 100 µM | [4] > 100 µM | [6] > 100 µM | [7] > 100 µM | [8] > 100 µM | [9] 63.1 µM | [10] > 100 µM | [11] > 100 µM | [12] > 100 µM | [13] > 100 µM | [14] > 100 µM | [15] > 100 µM | [16] > 100 µM | [17] > 100 µM | [20] > 100 µM | [18] > 100 µM
